We go through one compound from patent publication US7915050B2, “Regulatory genes for plant differentiation and growth, and use of the same” (National University Corporation Nagoya University, priority 2005, dated 2011).

For test [1], the system named is GA-deficient Arabidopsis mutant ga1-3 seeds. The test is described as follows: Germination of GA-deficient ga1-3 seeds. Type of test: in vivo. The procedure:
The germination of GA-deficient gal-3 seeds in a medium containing 16,17-dihydro-GA4 was tested, according to the method of Yamaguchi et al. (Plant Cell, 10, 2115-2126, […]). Approximately 70 to 80 seeds were used per each dish. Three independent measurements were carried, and the standard deviation (SD) was determined from these measurements. The seeds were assessed for germination at 23° C. on day 4, after cold treatment at 4° C. for 3 days. GA4 was used as a reference.

Test [2] deals with T1, AtGID1b (Arabidopsis thaliana, UniProt Q9LYC1).
T1 construct: made in house; host or cells: E. coli
T1 sequence (Q9LYC1 1-358): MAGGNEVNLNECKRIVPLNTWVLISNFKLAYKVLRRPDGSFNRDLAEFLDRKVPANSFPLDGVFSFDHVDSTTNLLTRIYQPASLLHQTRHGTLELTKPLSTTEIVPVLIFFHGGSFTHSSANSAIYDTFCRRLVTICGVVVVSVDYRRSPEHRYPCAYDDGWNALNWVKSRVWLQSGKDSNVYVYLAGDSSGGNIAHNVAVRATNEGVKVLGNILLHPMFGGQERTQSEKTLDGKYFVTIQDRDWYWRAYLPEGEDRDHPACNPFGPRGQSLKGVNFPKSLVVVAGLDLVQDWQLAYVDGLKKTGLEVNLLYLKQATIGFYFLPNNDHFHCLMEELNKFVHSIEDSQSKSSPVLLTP
The test is described as follows: Competitive ability of GA in AtGID1-GA binding (AtGID1b). As to the method:
In the gibberellin-binding assay, [1,2,16,17-^3H4]16,17-dihydro-GA4 was used as a labeled GA4. In vitro GA-binding assays were carried out using previous methods with some modifications (Nakajima, M. et al., Biochem. Biophys. Res. Comm. 241, 782-786 (1997)). The purified recombinant GID1 protein (400 pmol) was dissolved in 300 μl of binding buffer [20 mM Tris-HCl (pH 7.6), 5 mM 2-mercaptoethanol, and 0.1 M NaCl], and incubated with 100 μl of ^3H4-16,17-dihydroGA4 (6 pmol) for two hours at 25° C., either in the absence of non-labeled GA4 (total binding) or in the presence of 833-fold excess non-labeled GA4 (total non-specific binding). Then, 0.1 ml of the reaction mixture was loaded onto a NAP-5 column (Amersham Biosciences, Piscataway, N.J.). The eluate of the binding buffer (0.6 ml) was discarded, the subsequent eluate (0.2 ml) was collected, and the radioactivity was measured. The specific binding activity, reflecting the number of displaceable GA binding sites, was calculated by subtracting the amount of nonspecific binding from the amount of total binding. The same as above can also be carried out for other GAs.
Specifically, the coding region of the AtGID1 gene was amplified by PCR using specific primers designed based on the full-length cDNA sequence of the AtGID1 gene and having appropriate restriction sites at each end. After confirmation by sequence analysis, each cDNA fragment was ligated into pET32a vector (Novagen/Merck Biosciences, Madison, Wis., USA) or pGEX-4T-2 vector (Amersham Biosciences, Piscataway, N.J., USA; currently, a part of GE Healthcare). The production of recombinant proteins was confirmed by SDS-PAGE; vector cassettes were used as negative controls. GA binding assays were carried out similarly as described above using [1,2,16,17-^3H4]-16,17-dihydro-GA4 (4.55 TBq/mmol), which was custom-made by DuPont/NEN (Boston, Mass., USA). Non-labeled GA4 (1.25 mM) was used to measure non-specific binding. Saturation experiments for the kinetic analysis were carried out using ten concentrations of 16,17-dihydro-GA4 within the range of 25 to 1,500 nM. Competition assays were performed using [1,2,16,17-^3H4]-16,17-dihydro-GA4 at 15 nM and five concentrations of the non-labeled competitor. Recombinant RGA and GAI proteins were prepared using pET32a by a previously described method.
The ligand selectivity of each AtGID1 was examined by observing the competitive inhibition, by the addition of GA to the assay mixtures, of the binding between the recombinant proteins and tritiated 16,17-dihydro-GA4 (Table 2). The ligand selectivity was evaluated using the concentration of GA that inhibits 50% of the tracer (15 nM) binding (IC50 value).

In test [3] the target is T1, AtGID1b. Nature of the test: Scatchard analysis of GA binding of AtGID1b. As to conditions: equilibrium conditions. The procedure: Panels A) to C) depict the results of Scatchard plot analyses for the GA binding of AtGID1. Results for AtGID1a (A), AtGID1b (B), and AtGID1c (C) are shown. The Kd values for 16,17-dihydro-GA4 was determined by adding various concentrations of GA to the assay mixture. Standard deviation (SD) was determined from these three independent measurements. The insets show time-course characteristics for the GA binding of AtGID1 and replacement (arrow) using an excess amount of non-labeled GA4 (0.125 mM). Panels D) to F) depict the GA binding activities of AtGID1 under different pH conditions. Results for AtGID1a (D), AtGID1b (E), and AtGID1c (F) are shown. The non-specific binding activity (UB) was determined by adding 0.125 mM GA4 to the assay solution, and this was subtracted from the total binding activity (B) to determine the specific binding activity (B-UB).
Specifically, the coding region of the AtGID1 gene was amplified by PCR using specific primers designed based on the full-length cDNA sequence of the AtGID1 gene and having appropriate restriction sites at each end. […]
The kinetics, ligand selectivity, and pH dependence of GA binding for the three AtGID1s identified as described above were examined using the tritiated GA4 derivative 16,17-dihydro-GA4. […] Furthermore, the kinetics of GA binding of each AtGID1 was analyzed under equilibrium conditions of GA at various concentrations.

Broadly, the IC50 is the point on the concentration scale where inhibition reaches its midpoint. Low values mean higher potency, high ones lower potency. As usually defined, the Kd is the equilibrium constant for the complex coming apart. Higher therefore signals a looser complex. As to `CC1C[C@]23C[C@H]1CCC2[C@]12CC[C@H](O)[C@](C)(C(=O)O1)[C@H]2[C@@H]3C(=O)O` (stereo partly shown) [H2-GA4, 16,17-dihydro-GA4], the “physiological effect on germination relative to GA4” value in test [1] is recorded as “about 1/10”. Besides, on AtGID1b [2], the “relative value, taking the value for GA4 as 100” value is “(8) %”. This compound displayed an IC50 on AtGID1b [2] (tracer 15 nM, mean of at least two measurements) of 400 nM. On AtGID1b [3], this compound displayed a Kd of 480 nM.
